Results taken from US20260130933A1, “PHARMACEUTICAL COMPOSITION FOR PREVENTION OR TREATMENT OF NEPHROPATHY AND/OR DIABETES MELLITUS, COMPRISING ENAVOGLIFLOZIN” (DAEWOONG PHARMACEUTICAL CO., LTD., priority 2022, published 2026).
“And” between values parts separate entries of the source, which are not always exact repeats. Equal entries are not always repeated.

Assay: Example 2: phase 3 trial, enavogliflozin 0.3 mg vs dapagliflozin 10 mg once a day for 24 weeks added to metformin in patients with type 2 diabetes (same efficacy, exploratory and safety endpoints)
Assay type: in vivo, human
Description: Subjects who met the inclusion/exclusion criteria were administered a placebo of the clinical trial drug under single-blind (subject blinding) conditions during a 2-week run-in period while continuing to receive metformin. […] The randomized subjects were administered two tablets of the clinical trial drug for each administration group once a day, and then visited the institution at weeks 6, 12, 18, and 24 during the 24-week administration period to conduct efficacy and safety evaluations.
• 1. Change in HbA1c at week 24 after administration of clinical trial drug compared to Visit 2 (randomization)
• 1. Change in HbA1c at each time point of weeks 6, 12, and 18 after administration of clinical trial drug compared to Visit 2 (randomization) • 2. Change in FPG at each time point of weeks 6, 12, 18, and 24 after administration of clinical trial drug compared to Visit 2 (randomization) • 3. Proportion of subjects achieving HbA1c<7% at each time point of weeks 6, 12, 18, and 24 after administration of clinical trial drug • 4. Proportion of subjects achieving HbA1c<6.5% at each time point of weeks 6, 12, 18, and 24 after administration of clinical trial drug • 5. Proportion of subjects achieving therapeutic response (HbA1c change (HbA1c at Visit 2-HbA1c at each evaluation time point)>0.5% or HbA1c<7% at each evaluation time point compared to Visit 2 (randomization)) at each time point of weeks 6, 12, 18 and 24 after administration of clinical trial drug
• 1. Change in fasting c-peptide at each time point of weeks 6, 12, 18, and 24 after administration of clinical trial drug compared to Visit 2 (randomization) • 2. Change in body weight at each time point of weeks 6, 12, 18, and 24 after administration of clinical trial drug compared to Visit 2 (randomization) • 3. Change in fasting lipid concentration (total cholesterol, LDL-C, HDL-C, and triglycerides) at each time point of weeks 6, 12, 18, and 24 after administration of clinical trial drug compared to Visit 2 (randomization) • 4. Changes in systolic or diastolic blood pressure at each time point of weeks 6, 12, 18, and 24 after administration of clinical trial drug compared to Visit 2 (randomization) • 5. Changes in β-cell function and insulin resistance measured by HOMA-β and HOMA-IR at each time point of weeks 6, 12, 18, and 24 after administration of clinical trial drug compared to Visit 2 (randomization) • 6. Changes in renal function-related indicators (UACR, UGCR) measured by UACR at each time point of weeks 6, 12, 18, and 24 after administration of clinical trial drug compared to Visit 2 (randomization) • 7. Changes in obesity-related indicators (adiponectin, leptin) at each time point of weeks 6, 12, 18, and 24 after administration of clinical trial drug compared to Visit 2 (randomization)

[1] = week 12, per-protocol set, enavogliflozin 0.3 mg, dapagliflozin 10 mg
[2] = week 18, listed as enavogliflozin
[3] = week 18, modified per-protocol set 1, enavogliflozin 0.3 mg, dapagliflozin 10 mg
[4] = week 18, per-protocol set, enavogliflozin 0.3 mg vs dapagliflozin 10 mg
[5] = week 18, per-protocol set, enavogliflozin 0.3 mg, dapagliflozin 10 mg

Q: For OC[C@H]1O[C@@H](c2cc(Cc3ccc(C4CC4)cc3)c(Cl)c3c2CCO3)[C@H](O)[C@@H](O)[C@@H]1O [Enavogliflozin, (2S,3R,4R,5S,6R)-2-(7-chloro-6 (4-cyclopropylbenzyl)-2,3-dihydrobenzofuran-4-yl)-6-(hydroxymethyl)tetrahydro-2H-pyran-3,4,5-triol], which “FPG, Median” value [1] is on record?
A: 115.50 mg/dL

Q: And the “HbA1c, Mean (SD)” value [1]?
A: 6.97%

Q: What about the “HbA1c, Median” value [1] of the same molecule?
A: 6.83%

Q: And the “Subjects achieving HbA1c target of <6.5%, (%)” value [1]?
A: (15.96) %

Q: What about the “Subjects achieving therapeutic glycemic response, (%)” value [1] of the same molecule?
A: (88.30) %

Q: What about the “body weight, Mean (SD)” value [1] of the same molecule?
A: 67.44(11.05) kg

Q: And the “body weight, Median” value [1]?
A: 65.70 kg

Q: What about the “fasting c-peptide, Mean (SD)” value [1] of the same molecule?
A: 0.65(0.28) ng/mL

Q: And the “fasting c-peptide, Median” value [1]?
A: 0.61 ng/mL

Q: And the “FPG change from baseline, LS mean (SE)” value (week 18)?
A: −33.44(1.60) mg/dL

Q: And the “HOMA-IR change from baseline, LS mean (SE)” value (week 18)?
A: −1.79(0.11)

Q: What about the “HOMA-β change from baseline, LS mean (SE)” value (week 18) of the same molecule?
A: 10.97(3.06)

Q: What about the “HbA1c change from baseline, LS mean (SE)” value (week 18) of the same molecule?
A: −0.74(0.06) % p

Q: And the “LDL-C change from baseline, LS mean (SE)” value (week 18)?
A: 1.42(1.86) mg/dL

Q: What about the “Subjects achieving HbA1c target of <7%” value (week 18) of the same molecule?
A: (62.64) %

Q: And the “Subjects achieving HbA1c<6.5%” value (week 18)?
A: 9.89%

Q: What about the “Subjects achieving therapeutic response (HbA1c change >0.5% or HbA1c<7%)” value (week 18) of the same molecule?
A: 80.22%

Q: What about the “UACR change from baseline, LS mean (SE)” value (week 18) of the same molecule?
A: −23.05(5.06) g/kg

Q: What about the “diastolic blood pressure change from baseline, LS mean (SE)” value (week 18) of the same molecule?
A: −4.80(0.78) mmHg

Q: And the “fasting c-peptide change from baseline, LS mean (SE)” value (week 18)?
A: −0.07(0.18) ng/ml

Q: And the “leptin change from baseline, LS mean (SE)” value (week 18)?
A: −2.49(0.52) ng/mL

Q: What about the systolic blood pressure change from baseline, LS mean (SE) (week 18) of the same molecule?
A: -6.69 mmHg

Q: And the “FPG change from baseline, LS mean difference” value (week 18, vs dapagliflozin)?
A: -2.31 mg/dL

Q: What about the “HDL-C change from baseline, LS mean difference” value (week 18, vs dapagliflozin) of the same molecule?
A: -0.62 mg/dL

Q: What about the “HOMA-IR change from baseline, LS mean difference” value (week 18, vs dapagliflozin) of the same molecule?
A: −0.32

Q: What about the “HOMA-β change from baseline, LS mean difference” value (week 18, vs dapagliflozin) of the same molecule?
A: −2.53

Q: And the “HbA1c change from baseline, LS mean difference” value (week 18, vs dapagliflozin)?
A: −0.05 % p

Q: And the “LDL-C change from baseline, LS mean difference” value (week 18, vs dapagliflozin)?
A: -1.15 mg/dL

Q: And the “Odds ratio for achieving HbA1c<6.5%” value (week 18, vs dapagliflozin)?
A: 0.31

Q: What about the “Odds ratio for achieving HbA1c<7%” value (week 18, vs dapagliflozin) of the same molecule?
A: 1.29

Q: And the “Odds ratio for achieving therapeutic response” value (week 18, vs dapagliflozin)?
A: 1.58

Q: And the “UACR change from baseline, LS mean difference” value (week 18, vs dapagliflozin)?
A: −10.10

Q: And the “UGCR change from baseline, LS mean difference” value (week 18, vs dapagliflozin)?
A: 18.25 mg/mg

Q: What about the “body weight change from baseline, LS mean difference” value (week 18, vs dapagliflozin) of the same molecule?
A: 0.02 kg

Q: What about the “diastolic blood pressure change from baseline, LS mean difference” value (week 18, vs dapagliflozin) of the same molecule?
A: −0.70 mmHg

Q: And the “fasting c-peptide change from baseline, LS mean difference” value (week 18, vs dapagliflozin)?
A: -0.02 ng/mL

Q: And the “leptin change from baseline, LS mean difference” value (week 18, vs dapagliflozin)?
A: -1.26 ng/mL

Q: What about the “systolic blood pressure change from baseline, LS mean difference” value (week 18, vs dapagliflozin) of the same molecule?
A: −0.72 mmHg

Q: What about the “total cholesterol change from baseline, LS mean difference” value (week 18, vs dapagliflozin) of the same molecule?
A: -1.77 mg/dL

Q: What about the “triglyceride change from baseline, LS mean difference” value (week 18, vs dapagliflozin) of the same molecule?
A: -6.87 mg/dL

Q: And the “Subjects achieving HbA1c target of <7%” value [2]?
A: 62.64%

Q: And the “UGCR change from baseline, LS mean (SE)” value [2]?
A: 60.97(2.13) mg/mg and 42.72(2.15) mg/mg

Q: What about the “Change from baseline in total cholesterol, ANCOVA LS mean difference” value (week 18, modified per-protocol set 1, enavogliflozin 0.3 mg vs dapagliflozin 10 mg) of the same molecule?
A: -1.77 mg/dL

Q: What about the “Change from baseline in Total cholesterol, ANCOVA LS mean (SE)” value [3] of the same molecule?
A: 7.80(2.16) mg/dL

Q: What about the “Change from baseline in Total cholesterol, Mean (SD)” value [3] of the same molecule?
A: 6.23(16.54) mg/dL

Q: And the “Change from baseline in total cholesterol, Median” value [3]?
A: 6.00 mg/dL

Q: And the “fasting Total cholesterol, Mean (SD)” value [3]?
A: 156.99(32.54) mg/dL

Q: What about the “fasting Total cholesterol, Median” value [3] of the same molecule?
A: 149.00 mg/dL

Q: What about the “Change from baseline in FPG, ANCOVA LS mean difference” value [4] of the same molecule?
A: -2.31 mg/dL

Q: And the “Change from baseline in HbA1c, ANCOVA LS mean difference” value [4]?
A: −0.05 % p

Q: And the “Change from baseline in body weight, ANCOVA LS mean difference” value [4]?
A: 0.02 kg

Q: And the “Change from baseline in fasting c-peptide, ANCOVA LS mean difference” value [4]?
A: -0.02 ng/mL

Q: What about the “Odds ratio for achieving HbA1c target of <6.5%, logistic regression model” value [4] of the same molecule?
A: 0.31

Q: What about the “Odds ratio for achieving therapeutic glycemic response, logistic regression model” value [4] of the same molecule?
A: 1.58

Q: What about the “Change from baseline in FPG, ANCOVA LS mean (SE)” value [5] of the same molecule?
A: -33.44 mg/dL

Q: What about the “Change from baseline in FPG, Mean (SD)” value [5] of the same molecule?
A: -31.78 mg/dL

Q: And the “Change from baseline in FPG, Median” value [5]?
A: -31.00 mg/dL

Q: And the “Change from baseline in HbA1c, ANCOVA LS mean (SE)” value [5]?
A: −0.74 % p

Q: And the “Change from baseline in HbA1c, Mean (SD)” value [5]?
A: −0.71 % p

Q: What about the “Change from baseline in HbA1c, Median” value [5] of the same molecule?
A: −0.56 % p

Q: And the “Change from baseline in body weight, ANCOVA LS mean (SE)” value [5]?
A: −3.14(0.26) kg

Q: What about the “Change from baseline in body weight, Mean (SD)” value [5] of the same molecule?
A: −3.17(2.68) kg

Q: What about the “Change from baseline in body weight, Median” value [5] of the same molecule?
A: -3.20 kg

Q: What about the “Change from baseline in fasting c-peptide, ANCOVA LS mean (SE)” value [5] of the same molecule?
A: −0.08(0.02) ng/mL

Q: And the “Change from baseline in fasting c-peptide, Mean (SD)” value [5]?
A: −0.07(0.18) ng/mL

Q: What about the “Change from baseline in fasting c-peptide, Median” value [5] of the same molecule?
A: -0.07 ng/mL

Q: What about the “FPG, Mean (SD)” value [5] of the same molecule?
A: 112.95 mg/dL

Q: And the “FPG, Median” value [5]?
A: 113.00 mg/dL

Q: And the “HbA1c, Mean (SD)” value [5]?
A: 7.02%

Q: What about the “HbA1c, Median” value [5] of the same molecule?
A: 6.89%
